For this test, the system named is hypothalamic Notch signaling. Kind of test: Daily third-ventricle injection of DLL4 in obese mice implanted with DNIκBα-hNSC. It counts as in vivo. As for the experimental part: In vivo implantation of hNSC with Notch inhibition counteracts obesity-T2D: Hypothalamic hNSC implantation was performed to investigate whether Notch inhibition could mimic IKKβ/NF-κB inhibition in counteracting obesity and related metabolic disorders. This investigation was also rationalized by the data showing that Notch signaling was robust (indicated by the active form of Notch 1 protein) in Sox2-positie cells of HFD-fed mice but not chow-fed mice (FIG. 7E). In the experiment, C57BL/6 mice received mediobasal hypothalamic injections of GFP-hNSC which carried Notch 1-4 shRNAs vs. control shRNA, and were then maintained on HFD vs. chow feeding. […] Thus, inhibition of Notch signaling can recapitulate the effect of NF-κB inhibition in the NSC implantation with respect to counteraction against HFD-induced obesity and metabolic disorders. Finally, hNSC implantation was employed to assess the IKKβ/NF-κB-Notch connection which was established in vitro. […] Therefore, NSC implantation can, at least, primarily employ neurogenetic program to counteract against metabolic disease, although other associated factors (such as inflammatory changes) probably also participate primarily or secondarily.

With “DLL4: Notch protein ligand DLL4, injected daily into the third ventricle”, under “data not shown”, the DNIκBα-hNSC induced neurogenesis result is “reversal of ^DNIκBα-hNSC induced neurogenesis” and the hypothalamic inflammation entry is on record as “not an induction of hypothalamic inflammation”. Also, under “mice already obese via chronic HFD feeding”, the “anti-obesity effect of DNIκBα-hNSC implantation” value was “significantly abolished the anti-obesity effect”.

The values above are taken from US20180105863A1, “NEURAL STEM CELL THERAPY FOR OBESITY AND DIABETES” (ALBERT EINSTEIN COLLEGE OF MEDICINE, INC., priority 2012, published 2018).
